ChEMBL document CHEMBL1201862, “PubChem BioAssay data set” (2004)
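Assay format: 96-well plates, 48-hour exposure. The concentration for 50% growth inhibition is given as GI50.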 The source made the active and inactive calls. Cut-off read from the data, not from the text of the source: active = GI50 up to about 1.1 µM and inactive = higher.

Key:
Assay in all cases: NCI anticancer screen, dose series, 48 h
MCF7 = tested on: MCF7
MDA-N = tested on: MDA-N
U-251 = tested on: U-251
IGROV-1 = tested on: IGROV-1
RXF 393 = tested on: RXF 393
SNB-75 = tested on: SNB-75
M14 = tested on: M14
SK-OV-3 = tested on: SK-OV-3
HCC 2998 = tested on: HCC 2998
KM12 = tested on: KM12
OVCAR-3 = tested on: OVCAR-3
DU-145 = tested on: DU-145
SW-620 = tested on: SW-620
OVCAR-5 = tested on: OVCAR-5
T47D = tested on: T47D
SN12C = tested on: SN12C
SK-MEL-28 = tested on: SK-MEL-28
TK-10 = tested on: TK-10
EKVX = tested on: EKVX
NCI-H522 = tested on: NCI-H522

Question: Which results are given for C=CCn1c(-c2ccc(Cl)cc2)cs/c1=N\c1ccccc1OC?
Answer: GI50 (MCF7): 27.4 µM (inactive); GI50 (MDA-N): 2.1 µM (inactive); GI50 (U-251): > 69.5 µM (inactive); GI50 (IGROV-1): > 100 µM (inactive); GI50 (RXF 393): > 100 µM (inactive); GI50 (SNB-75): > 33.3 µM (inactive); GI50 (M14): 10.1 µM (inactive); GI50 (SK-OV-3): > 45.2 µM (inactive); GI50 (HCC 2998): > 100 µM (inactive); GI50 (KM12): 15.8 µM (inactive); GI50 (OVCAR-3): 40.8 µM (inactive); GI50 (DU-145): > 100 µM (inactive); GI50 (SW-620): 60 µM (inactive); GI50 (OVCAR-5): > 59.3 µM (inactive); GI50 (T47D): 2.34 µM (inactive); GI50 (SN12C): > 100 µM (inactive); GI50 (SK-MEL-28): > 47.2 µM (inactive); GI50 (TK-10): > 100 µM (inactive)

Question: How did the GI50 (EKVX) turn out when C[C@@H]1OC(=O)/C(=C\N(C)C)[C@H]2CC(=O)N(CCc3cn(S(=O)(=O)C(F)(F)F)c4ccccc34)C[C@H]12 was run?
Answer: Its GI50 is > 100 µM (inactive).

Question: And the GI50 (MCF7)?
Answer: Its GI50 is > 100 µM (inactive).

Question: What about the GI50 (MDA-N) of the same compound?
Answer: Its GI50 is > 100 µM (inactive).

Question: And the GI50 (U-251)?
Answer: Its GI50 is > 100 µM (inactive).

Question: What about the GI50 (IGROV-1) of the same compound?
Answer: Its GI50 is > 100 µM (inactive).

Question: What about the GI50 (RXF 393) of the same compound?
Answer: Its GI50 is > 100 µM (inactive).

Question: What about the GI50 (SNB-75) of the same compound?
Answer: The GI50 was > 100 µM (inactive).

Question: And the GI50 (M14)?
Answer: Its GI50 is > 100 µM (inactive).

Question: And the GI50 (NCI-H522)?
Answer: The GI50 was > 100 µM (inactive).

Question: What about the GI50 (SK-OV-3) of the same compound?
Answer: Its GI50 is > 100 µM (inactive).

Question: What about the GI50 (HCC 2998) of the same compound?
Answer: Its GI50 is > 100 µM (inactive).

Question: What about the GI50 (KM12) of the same compound?
Answer: The GI50 was > 100 µM (inactive).

Question: And the GI50 (OVCAR-3)?
Answer: The GI50 was > 100 µM (inactive).

Question: And the GI50 (SW-620)?
Answer: The GI50 was > 100 µM (inactive).

Question: What about the GI50 (OVCAR-5) of the same compound?
Answer: The GI50 was > 100 µM (inactive).

Question: And the GI50 (T47D)?
Answer: The GI50 was > 100 µM (inactive).

Question: What about the GI50 (SN12C) of the same compound?
Answer: The GI50 was > 100 µM (inactive).

Question: And the GI50 (SK-MEL-28)?
Answer: Its GI50 is > 100 µM (inactive).

Question: And the GI50 (TK-10)?
Answer: Its GI50 is > 100 µM (inactive).

Question: Which results are given for CO/C(=N\N=C(/C)C(F)(F)F)c1ccncc1?
Answer: GI50 (MCF7): > 100 µM (inactive); GI50 (MDA-N): > 100 µM (inactive); GI50 (U-251): > 100 µM (inactive); GI50 (IGROV-1): > 100 µM (inactive); GI50 (RXF 393): > 100 µM (inactive); GI50 (SNB-75): > 100 µM (inactive); GI50 (M14): > 100 µM (inactive); GI50 (NCI-H522): > 100 µM (inactive); GI50 (SK-OV-3): > 100 µM (inactive); GI50 (KM12): > 100 µM (inactive); GI50 (OVCAR-3): > 100 µM (inactive); GI50 (DU-145): > 100 µM (inactive); GI50 (OVCAR-5): > 100 µM (inactive); GI50 (T47D): > 100 µM (inactive); GI50 (SN12C): > 100 µM (inactive); GI50 (SK-MEL-28): > 100 µM (inactive)

Question: What does the source list for CCOC(=O)c1ccc(/N=c2/[nH]c3ccccc3s/c2=N/c2ccc(C(=O)OCC)cc2)cc1?
Answer: GI50 (EKVX): > 100 µM (inactive); GI50 (MDA-N): > 100 µM (inactive); GI50 (U-251): 39.4 µM (inactive); GI50 (IGROV-1): > 100 µM (inactive); GI50 (RXF 393): > 100 µM (inactive); GI50 (SNB-75): 48 µM (inactive); GI50 (NCI-H522): 5.24 µM (inactive); GI50 (SK-OV-3): > 100 µM (inactive); GI50 (HCC 2998): > 100 µM (inactive); GI50 (KM12): > 100 µM (inactive); GI50 (DU-145): > 100 µM (inactive); GI50 (SW-620): > 100 µM (inactive); GI50 (OVCAR-5): > 100 µM (inactive); GI50 (T47D): > 100 µM (inactive); GI50 (SN12C): > 100 µM (inactive); GI50 (SK-MEL-28): > 100 µM (inactive); GI50 (TK-10): > 100 µM (inactive)

Question: How did the GI50 (EKVX) turn out when COc1cc([C@@H]2c3cc4c(cc3[C@@H](/N=C/c3ccc(C(=O)O[C@@H](C(=O)O[C@H]5C[C@@]6(O)[C@@H](OC(=O)c7ccccc7)[C@@H]7[C@]8(OC(C)=O)CO[C@@H]8C[C@H](O)[C@@]7(C)C(=O)[C@H](OC(C)=O)C(=C5C)C6(C)C)[C@@H](NC(=O)c5ccccc5)c5ccccc5)cc3)[C@H]3COC(=O)[C@H]23)OCO4)cc(OC)c1O was run?
Answer: Its GI50 is 5.93 µM (inactive).

Question: And the GI50 (MCF7)?
Answer: Its GI50 is 0.0128 µM (active).

Question: What about the GI50 (MDA-N) of the same compound?
Answer: Its GI50 is 0.00589 µM (active).

Question: What about the GI50 (U-251) of the same compound?
Answer: Its GI50 is 0.0154 µM (active).

Question: What about the GI50 (IGROV-1) of the same compound?
Answer: Its GI50 is 0.19 µM (active).

Question: And the GI50 (RXF 393)?
Answer: The GI50 was 0.0333 µM (active).

Question: And the GI50 (SNB-75)?
Answer: The GI50 was < 0.005 µM (active).

Question: And the GI50 (M14)?
Answer: The GI50 was 0.022 µM (active).

Question: And the GI50 (NCI-H522)?
Answer: The GI50 was 0.0138 µM (active).

Question: What about the GI50 (SK-OV-3) of the same compound?
Answer: The GI50 was 0.0785 µM (active).

Question: What about the GI50 (HCC 2998) of the same compound?
Answer: Its GI50 is 0.0189 µM (active).

Question: What about the GI50 (KM12) of the same compound?
Answer: The GI50 was 0.0094 µM (active).

Question: And the GI50 (OVCAR-3)?
Answer: The GI50 was 0.00893 µM (active).

Question: And the GI50 (DU-145)?
Answer: The GI50 was 0.0261 µM (active).

Question: And the GI50 (SW-620)?
Answer: Its GI50 is 0.0297 µM (active).

Question: What about the GI50 (OVCAR-5) of the same compound?
Answer: Its GI50 is 0.0312 µM (active).

Question: And the GI50 (SN12C)?
Answer: The GI50 was 0.0393 µM (active).

Question: And the GI50 (SK-MEL-28)?
Answer: Its GI50 is > 37.1 µM (inactive).

Question: And the GI50 (TK-10)?
Answer: Its GI50 is 14.1 µM (inactive).

Question: CNC1(c2cc3ccccc3s2)CCCCC1 was tested. Which GI50 (EKVX) did it give?
Answer: The GI50 was 0.433 µM (active).

Question: And the GI50 (MCF7)?
Answer: Its GI50 is 29.5 µM (inactive).

Question: And the GI50 (MDA-N)?
Answer: The GI50 was 19.9 µM (inactive).

Question: What about the GI50 (U-251) of the same compound?
Answer: The GI50 was 17.8 µM (inactive).

Question: What about the GI50 (IGROV-1) of the same compound?
Answer: The GI50 was 19.1 µM (inactive).

Question: What about the GI50 (RXF 393) of the same compound?
Answer: Its GI50 is 23.4 µM (inactive).

Question: And the GI50 (SNB-75)?
Answer: The GI50 was 21.5 µM (inactive).

Question: What about the GI50 (M14) of the same compound?
Answer: Its GI50 is 18 µM (inactive).

Question: And the GI50 (NCI-H522)?
Answer: Its GI50 is 12.7 µM (inactive).

Question: What about the GI50 (SK-OV-3) of the same compound?
Answer: Its GI50 is 39 µM (inactive).

Question: What about the GI50 (HCC 2998) of the same compound?
Answer: Its GI50 is 14.9 µM (inactive).

Question: And the GI50 (KM12)?
Answer: Its GI50 is 17.9 µM (inactive).

Question: And the GI50 (OVCAR-3)?
Answer: The GI50 was 28.2 µM (inactive).

Question: And the GI50 (DU-145)?
Answer: Its GI50 is 40.1 µM (inactive).

Question: What about the GI50 (SW-620) of the same compound?
Answer: The GI50 was < 0.01 µM (active).

Question: And the GI50 (OVCAR-5)?
Answer: The GI50 was 20.5 µM (inactive).

Question: And the GI50 (SN12C)?
Answer: The GI50 was 38.1 µM (inactive).

Question: And the GI50 (TK-10)?
Answer: Its GI50 is 44.2 µM (inactive).

Question: For O=P1(c2ccccc2)C2=CCC=CC2C(c2ccccc2)N1Cc1ccccc1 (configuration not stated), which GI50 (EKVX) is on record?
Answer: Its GI50 is 14 µM (inactive).

Question: And the GI50 (MCF7)?
Answer: The GI50 was 11.2 µM (inactive).

Question: What about the GI50 (MDA-N) of the same compound?
Answer: The GI50 was 20.9 µM (inactive).

Question: And the GI50 (U-251)?
Answer: The GI50 was 14.3 µM (inactive).

Question: And the GI50 (IGROV-1)?
Answer: The GI50 was 16.1 µM (inactive).

Question: What about the GI50 (M14) of the same compound?
Answer: Its GI50 is 17.1 µM (inactive).

Question: And the GI50 (NCI-H522)?
Answer: Its GI50 is 11.4 µM (inactive).

Question: And the GI50 (SK-OV-3)?
Answer: Its GI50 is 17.1 µM (inactive).

Question: What about the GI50 (KM12) of the same compound?
Answer: Its GI50 is 12.9 µM (inactive).

Question: What about the GI50 (DU-145) of the same compound?
Answer: Its GI50 is 17.5 µM (inactive).

Question: And the GI50 (SW-620)?
Answer: Its GI50 is 21 µM (inactive).

Question: What about the GI50 (OVCAR-5) of the same compound?
Answer: The GI50 was > 100 µM (inactive).

Question: What about the GI50 (T47D) of the same compound?
Answer: The GI50 was 16.3 µM (inactive).

Question: What about the GI50 (SN12C) of the same compound?
Answer: Its GI50 is 15.6 µM (inactive).

Question: And the GI50 (TK-10)?
Answer: Its GI50 is 20 µM (inactive).
